The text below walks through data of ChEMBL document CHEMBL5209587, “Membrane potential based assay for SLC23A1 using HEK-293 SLC23A1 OE cells” (2022).

In the assay the target is Solute carrier family 23 member 1 (Homo sapiens) (UniProt Q9UHI7). Description: Substrate uptake and inhibition of the Na(+)/L-Ascorbic Acid Transporter 1 (SVCT1, SLC23A1) as assessed by the fluorescent FLIPR membrane potential dye in HEK-293 JumpIN-SLC23A1 cells (PubChem AID: 1794810). In kind it is functional, cell-based. Particulars: HEK293.
Sequence of Solute carrier family 23 member 1 (Homo sapiens) (Q9UHI7 whole entry): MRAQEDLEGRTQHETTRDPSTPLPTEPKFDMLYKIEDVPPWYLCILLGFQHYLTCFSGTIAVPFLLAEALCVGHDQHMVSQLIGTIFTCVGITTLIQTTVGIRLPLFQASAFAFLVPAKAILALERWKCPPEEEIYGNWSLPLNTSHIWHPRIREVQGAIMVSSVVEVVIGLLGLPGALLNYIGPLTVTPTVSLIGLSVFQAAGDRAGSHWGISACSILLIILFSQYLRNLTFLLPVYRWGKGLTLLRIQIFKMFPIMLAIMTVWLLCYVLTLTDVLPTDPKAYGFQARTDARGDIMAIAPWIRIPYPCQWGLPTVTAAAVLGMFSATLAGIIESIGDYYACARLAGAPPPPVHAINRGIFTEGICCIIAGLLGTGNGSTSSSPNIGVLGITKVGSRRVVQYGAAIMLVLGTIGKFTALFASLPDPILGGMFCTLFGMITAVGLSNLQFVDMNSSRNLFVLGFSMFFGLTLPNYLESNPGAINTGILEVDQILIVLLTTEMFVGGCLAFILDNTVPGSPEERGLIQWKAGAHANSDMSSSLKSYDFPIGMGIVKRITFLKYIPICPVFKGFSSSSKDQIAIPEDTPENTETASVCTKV

`O=C(CCc1ccc(O)cc1)c1c(O)cc(O)cc1O`: the inhibition result was “Inhibitor: Almost Complete Inhibition At A Concentration Of 300 Μm”.
